# Test results taken from patent US8927594B2, “Compounds from soft coral, method of preparation and pharmaceutical uses thereof” (National Sun Yat-Sen University, priority 2010, dated 2015).
# How the values were obtained:
# [1] = Cytotoxicity, MTT colorimetric method, Hep G2; type: cell-based; conditions: human, Hep G2 cells (hepatocellular carcinoma)
# Method: (§1) Cell lines were purchased from the American Type Culture Collection (ATCC). Cytotoxicity assays were performed using the MTT [3-(4,5-dimethylthiazol-2-yl)-2,5-diphenyltetrazolium bromide] colorimetric method.
# [2] = Cytotoxicity, MTT colorimetric method, Hep 3B; type: cell-based; conditions: human, Hep 3B cells (hepatocellular carcinoma)
# Method: as §1
# [3] = Cytotoxicity, MTT colorimetric method, MDA-MB-231; type: cell-based; conditions: human, MDA-MB-231 cells (breast carcinoma)
# Method: as §1
# [4] = Cytotoxicity, MTT colorimetric method, MCF-7; type: cell-based; conditions: human, MCF-7 cells (breast carcinoma)
# Method: as §1
# [5] = Cytotoxicity, MTT colorimetric method, A549; type: cell-based; conditions: human, A549 cells (lung carcinoma)
# Method: as §1
# [6] = Cytotoxicity, MTT colorimetric method, Ca9-22; type: cell-based; conditions: human, Ca9-22 cells (gingival carcinoma)
# Method: as §1
# iNOS = iNOS protein expression in LPS-stimulated RAW264.7 macrophage cells, immunoblot analysis; type: cell-based, mouse; conditions: for effect on expression of iNOS protein relative to control cells stimulated with LPS only (in words): FIG. 2; for effect on expression of inducible nitric oxide synthase of macrophage cells stimulated with LPS (in words, summary): concentration not stated; for levels of iNOS protein relative to control cells stimulated with LPS only: concentration of 10 mM (so in the source), LPS alone = 100%, mean±SEM, n=6
# Method: (§2) A mouse macrophage cell line, RAW 264.7, purchased from the American Type Culture Collection (ATCC, No TIB-71) was chosen in the in vitro model. The cells were cultured in DMEM (Dulcbecco/s Modified Eagle medium) containing 10% fetal bovine serum (FBS) and penicillin G (100 U/ml) and streptomycin (100 μg/ml) at 37° C. and 5% CO2. When reaching 80% confluence, the cells were subcultured with trypsin. The cells were subjected to an anti-inflammation assay after subcultured for 36 hours. 3×10^6 RAW264.7 cells were cultured in a 10-cm culture dish and administered with lipopolysaccharide (LPS, 0.01 μg/ml; Sigma L2654). After 16 hours, the cells were collected. In an experiment group, the compound represented by formula 3 was added into the culture dish and followed by LPS before 10 minutes.
# (§3) The collected RAW264.7 cells were dissolved with 200 μL of 4° C. lysis buffer (50 mM Tris [pH 7.5], 150 mM NaCl, 1% TritonX-100, 0.1 mM EDTA, 0.1 mM EGTA, 10 μg PMSF, 1 aprotinin, 20 mM NaF, and 0.2 mM Na3VO4). The samples were centrifuged at 25,000 g for 30 minutes at 4° C. for removing the pellet. The supernatant was assayed with Bio-Rad DC protein assay kit (Bio-Rad Laboratories, Hercules, Calif., USA) and the absorbance was read with an ELISA reader (Thermo Electron Corporation, USA) for estimating the protein contents. The calibrated samples with equal volumes were added with a sample buffer (2% SDS, 10% glycerol, 0.1% bromophenol blue, 10% 2-mercaptoethanol, and 50mM Tris) of the same volume. Proteins were separated with 10% SDS-PAGE and transferred to a PVDF membrane ([…], Immobilon-P, Millipore, Bedford, Mass., USA) (1.5 A, 4° C., 2.5 hours). The transferred PVDF membranes were blocked with TTBS (Tris-HCl 20 mM, NaCl 137 mM, pH 7.4 and 0.1% Tween 20) containing 5% skim milk at room temperature for 1 hour and reacted with polyclonal anti-inducible nitric oxide synthase antibody (Transduction Laboratories, Lexington, Ky., USA) or polyclonal anti-cyclooxygenase-2 antibody (Cayman, Ann Arbor, Mich., USA) at room temperature for 3 hours. After washed with TTBS three times, the samples were reacted with HRP-conjugated anti-rabbit IgG antibody (1:2000) at room temperature for 1 hour. After washed with TTBS for three times, an enhanced chemiluminescence detection kit was used for reating with the PVDF membrane and exposed with an X-ray film (Kodak X-OMAT LS, Kodak, Rochester, N.Y., USA) for detecting the protein expression. The relative amount was calculated with Image-Pro plus 4.5 software (Media Cybernetics, Silver Spring, USA). The group added with only LPS was taken as 100%. β-actin (monoclonal antibody, Sigma, St Louis, Mo., USA) was taken as an internal control.
# COX-2 = COX-2 protein expression in LPS-stimulated RAW264.7 macrophage cells, immunoblot analysis; type: cell-based, mouse; conditions: for effect on COX-2 expression with LPS treatment (in words): FIG. 2; for effect on expression of cyclooxygenase-2 of macrophage cells stimulated with LPS (in words, summary): concentration not stated
# Method: as §2, §3
# [7] = 10 μM, RAW264.7 cells + LPS, same experimental condition
structure (smiles),measurement,setting,value
C=C1CC[C@@H](O)[C@]2(C)C[C@H](OC(C)=O)[C@@H]3[C@@H]([C@@H](C(C)C)CC[C@@]3(C)O)[C@H]12 [formula 16],IC50,[1],12.5 µg/mL
same,IC50,[2],9.6 µg/mL
same,IC50,[3],16 µg/mL
same,IC50,[4],9.9 µg/mL
same,IC50,[5],15.3 µg/mL
same,IC50,[6],13.6 µg/mL
"O=C(/C=C/c1ccc(O)c(O)c1)OCCc1ccccc1 [CAPE, caffeic acid phenylethyl ester, reference compound]","level of iNOS, relative intensity (LPS alone = 100%)",iNOS; [7],2.5±3.7%
same,"level of COX-2, relative intensity (LPS alone = 100%)",COX-2; [7],67.2±13.4%
CCCC(=O)O[C@]1(C)CC[C@H](OC(C)=O)[C@@](C)(O)C[C@H]2O[C@@H]1[C@@H]1[C@@H](C(C)C)[C@H](OC(C)=O)[C@@H](OC(C)=O)[C@@](C)(O)[C@@H]12 [formula 11],effect on expression of iNOS protein relative to control cells stimulated with LPS only (in words),"iNOS; 10 μM, RAW264.7 cells + LPS",enhance the expression
same,effect on COX-2 expression with LPS treatment (in words),"COX-2; 10 μM, RAW264.7 cells + LPS",enhance the expression
C/C1=C/[C@@H]2[C@@H](C(C)C)CC[C@@](C)(O)[C@@H]2CC/C(C)=C/CC1 [formula 14],effect on expression of iNOS protein relative to control cells stimulated with LPS only (in words),"iNOS; 10 μM, RAW264.7 cells + LPS",significantly reduce
same,"effect on expression of inducible nitric oxide synthase of macrophage cells stimulated with LPS (in words, summary)",iNOS,significantly reduce
same,effect on COX-2 expression with LPS treatment (in words),"COX-2; 10 μM, RAW264.7 cells + LPS",effectively reduce
same,"effect on expression of cyclooxygenase-2 of macrophage cells stimulated with LPS (in words, summary)",COX-2,effectively reduce
C=C1C[C@H]2O[C@H]([C@@H]3[C@@H](C(C)C)[C@H](OC(=O)CC[S+](C)[O-])[C@@H](OC(C)=O)[C@@](C)(O)[C@@H]32)[C@](C)(OC(=O)CCC)CC[C@@H]1O (stereo partly shown) [formula 4],levels of iNOS protein relative to control cells stimulated with LPS only,iNOS; RAW264.7 cells + LPS,11.3±1.5%
same,"effect on expression of inducible nitric oxide synthase of macrophage cells stimulated with LPS (in words, summary)",iNOS,significantly lowered
same,COX-2 expression relative to control cells stimulated with LPS only,"COX-2; concentration of 10 mM (so in the source), RAW264.7 cells + LPS, LPS alone = 100%, mean±SEM, n=6",7.2±2.5%
same,"effect on expression of cyclooxygenase-2 of macrophage cells stimulated with LPS (in words, summary)",COX-2,significantly lowered
CCCC(=O)O[C@H]1[C@H](C(C)C)[C@@H]2[C@@H]([C@H]3C[C@](C)([S+](C)[O-])CCC[C@@](C)(OC(=O)CCC)[C@@H]2O3)[C@](C)(O)[C@@H]1OC(C)=O (stereo partly shown) [formula 3],levels of iNOS protein relative to control cells stimulated with LPS only,iNOS; RAW264.7 cells + LPS,17.8±4.7%
same,"effect on expression of inducible nitric oxide synthase of macrophage cells stimulated with LPS (in words, summary)",iNOS,significantly lowered
CCCC(=O)O[C@]1(C)CCC[C@@](C)([S+](C)[O-])C[C@H]2O[C@@H]1[C@H]1[C@@H]2[C@](C)(OC(C)=O)CC[C@@H]1C(C)C (stereo partly shown) [formula 2],levels of iNOS protein relative to control cells stimulated with LPS only,iNOS; RAW264.7 cells + LPS,8.8±1.0%
same,"effect on expression of inducible nitric oxide synthase of macrophage cells stimulated with LPS (in words, summary)",iNOS,significantly lowered
